Test system: phospho-ErbB3 (pErbB3)
Format: cell-based
Conditions: incubation 15 minutes to 24 hours
Procedure: Cell lysates are probed for phospho-ErbB3 (pErbB3), and phospho-AKT (pAKT) by ELISA as described previously (Schoeberl et al, 2009) Inhibitor IC50 values are calculated by fitting dose-response data to a 4-parameter sigmoidal curve (GraphPad Prism®, GraphPad Software, Inc., La Jolla, Calif.).
Model-generated dose-response curves overlay the experimental data (FIG. 7a). […] Untreated and heregulin-stimulated cells were probed for pErbB3 and pAKT and the IC50 was calculated (FIG. 7b).
Amounts of pAKT and pErbB3 were measured by ELISA essentially as described.

“MM-111: bispecific anti-ErbB2/anti-ErbB3 antibody, scFv HSA conjugate, amino acid sequence SEQ ID NO:1” was tested, and the “ability to inhibit heregulin-induced ErbB3 activation relative to lapatinib” value was “superior to lapatinib by greater than an order of magnitude”.

Source: patent US9345766B2, “Combination therapies comprising anti-ERBB3 agents” (Merrimack Pharmaceuticals, Inc., priority 2012, dated 2016)
